Measurements taken from ChEMBL document CHEMBL4304832, “Novel Pyrazole-Containing Compounds Active against Mycobacterium tuberculosis” (ACS Med Chem Lett, 2019).

Test system: Mycobacterium tuberculosis
Assay: Antitubercular activity against Mycobacterium tuberculosis H37Rv infected in C57BL/6 mouse assessed as reduction in bacterial load in lungs at 30 mg/kg administered once daily starting from 5 days post infection for 4 consecutive days and measured on day 9
Type: functional

Structure (SMILES): COc1c(N2C[C@@H]3CCCN[C@@H]3C2)c(F)cc2c(=O)c(C(=O)O)cn(C3CC3)c12 [MOXIFLOXACIN]
- Activity: 3.5 log10CFU
